In US20070010671A1, “Novel quinazoline derivatives and methods of treatment related to the use thereof” (priority 2003, published 2007):

Each molecule was assayed against MCH receptor (Homo sapiens, UniProt Q99705) (assay: High throughput functional screening FLIPR/FDSS6000: inhibition of MCH-evoked intracellular Ca2+ changes). Conditions: class by percent of control at 10^−7 M or by IC50; read-out: class.
Type: cell-based
Method in brief: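 Antagonism was measured as inhibition of calcium responses to 50 nM MCH, monitored 290 s at ex 488/em 530 nm on FLIPR or FDSS6000. Beforehand, cells bearing a constitutively active MCH receptor received Fluo4-AM (4 μM, 1 h, 37 °C) with probenecid, and test compound for 3 min.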

IC50, < 50 nM:
CN(C)c1nc(N[C@H]2CC[C@@H](C(=O)NCc3ccc(Cl)cc3)CC2)nc2ccccc12 [Example 1155, cis-N-(4-chlorobenzyl)-4-{[4-(dimethylamino)quinazolin-2-yl]amino}cyclohexanecarboxamide]
CN(C)c1nc(N[C@H]2CC[C@@H](C(=O)NCc3ccc(Cl)c(Cl)c3)CC2)nc2ccccc12 [Example 1156, cis-N-(3,4-dichlorobenzyl)-4-{[4-(dimethylamino)quinazolin-2-yl]amino}cyclohexanecarboxamide]
CN(C)c1nc(N[C@H]2CC[C@@H](C(=O)NCc3cccc(F)c3)CC2)nc2ccccc12 [Example 1157, cis-4-{[4-(dimethylamino)quinazolin-2-yl]amino}-N-(3-fluorobenzyl)cyclohexanecarboxamide]
CN(C)c1nc(N[C@H]2CC[C@@H](C(=O)NCc3cc(F)ccc3F)CC2)nc2ccccc12 [Example 1158, cis-N-(2,5-difluorobenzyl)-4-{[4-(dimethylamino)quinazolin-2-yl]amino}cyclohexanecarboxamide]
CN(C)c1nc(N[C@H]2CC[C@@H](C(=O)NCc3cccc(F)c3F)CC2)nc2ccccc12 [Example 1159, cis-N-(2,3-difluorobenzyl)-4-{[4-(dimethylamino)quinazolin-2-yl]amino}cyclohexanecarboxamide]
CN(C)c1nc(N[C@H]2CC[C@@H](C(=O)NCc3cccc(Br)c3)CC2)nc2ccccc12 [Example 1160, cis-N-(3-bromobenzyl)-4-{[4-(dimethylamino)quinazolin-2-yl]amino}cyclohexanecarboxamide]
CN(C)c1nc(N[C@H]2CC[C@@H](C(=O)NCc3ccc(F)c(Br)c3)CC2)nc2ccccc12 [Example 1161, cis-N-(3-bromo-4-fluorobenzyl)-4-{[4-(dimethylamino)quinazolin-2-yl]amino}cyclohexanecarboxamide]
CN(C)c1nc(N[C@H]2CC[C@@H](C(=O)NCc3ccc(Br)cc3F)CC2)nc2ccccc12 [Example 1162, cis-N-(4-bromo-2-fluorobenzyl)-4-{[4-(dimethylamino)quinazolin-2-yl]amino}cyclohexanecarboxamide]
CN(C)c1nc(N[C@H]2CC[C@@H](C(=O)NCc3cc(Br)ccc3F)CC2)nc2ccccc12 [Example 1163, cis-N-(5-bromo-2-fluorobenzyl)-4-{[4-(dimethylamino)quinazolin-2-yl]amino}cyclohexanecarboxamide]
CN(C)c1nc(N[C@H]2CC[C@@H](C(=O)NCc3ccc(Cl)cc3F)CC2)nc2ccccc12 [Example 1164, cis-N-(4-chloro-2-fluorobenzyl)-4-{[4-(dimethylamino)quinazolin-2-yl]amino}cyclohexanecarboxamide]
Cc1cccc(CNC(=O)[C@H]2CC[C@@H](Nc3nc(N(C)C)c4ccccc4n3)CC2)c1 [Example 1165, cis-4-{[4-(dimethylamino)quinazolin-2-yl]amino}-N-(3-methylbenzyl)cyclohexanecarboxamide]
Cc1ccccc1CNC(=O)[C@H]1CC[C@@H](Nc2nc(N(C)C)c3ccccc3n2)CC1 [Example 1166, cis-4-{[4-(dimethylamino)quinazolin-2-yl]amino}-N-(2-methylbenzyl)cyclohexanecarboxamide]
CN(C)c1nc(N[C@H]2CC[C@@H](C(=O)NCc3ccccc3OC(F)(F)F)CC2)nc2ccccc12 [Example 1167, cis-4-{[4-(dimethylamino)quinazolin-2-yl]amino}-N-[2-(trifluoromethoxy)benzyl]cyclohexanecarboxamide]
CN(C)c1nc(N[C@H]2CC[C@@H](C(=O)NCc3ccc(F)c(F)c3F)CC2)nc2ccccc12 [Example 1169, cis-4-{[4-(dimethylamino)quinazolin-2-yl]amino}-N-(2,3,4-trifluorobenzyl)cyclohexanecarboxamide]
CN(C)c1nc(N[C@H]2CC[C@@H](C(=O)NCc3cc(F)c(F)cc3F)CC2)nc2ccccc12 [Example 1170, cis-4-{[4-(dimethylamino)quinazolin-2-yl]amino}-N-(2,4,5-trifluorobenzyl)cyclohexanecarboxamide]
CN(C)c1nc(N[C@H]2CC[C@@H](C(=O)NCc3cc(F)c(F)c(F)c3)CC2)nc2ccccc12 [Example 1171, cis-4-{[4-(dimethylamino)quinazolin-2-yl]amino}-N-(3,4,5-trifluorobenzyl)cyclohexanecarboxamide]
CN(C)c1nc(N[C@H]2CC[C@@H](C(=O)NCc3c(F)ccc(F)c3F)CC2)nc2ccccc12 [Example 1172, cis-4-{[4-(dimethylamino)quinazolin-2-yl]amino}-N-(2,3,6-trifluorobenzy)cyclohexanecarboxamide]
CN(C)c1nc(N[C@H]2CC[C@@H](C(=O)NCc3cc(F)cc(C(F)(F)F)c3)CC2)nc2ccccc12 [Example 1173, cis-4-{[4-(dimethylamino)quinazolin-2-yl]amino}-N-[3-fluoro-5-(trifluoromethyl)benzyl]cyclohexanecarboxamide]
CN(C)c1nc(N[C@H]2CC[C@@H](C(=O)NCc3ccc(F)cc3C(F)(F)F)CC2)nc2ccccc12 [Example 1174, cis-4-{[4-(dimethylamino)quinazolin-2-yl]amino}-N-[4-fluoro-2-(trifluoromethyl)benzyl]cyclohexanecarboxamide]
CN(C)c1nc(N[C@H]2CC[C@@H](C(=O)NCc3ccc(C(F)(F)F)cc3F)CC2)nc2ccccc12 [Example 1175, cis-4-{[4-(dimethylamino)quinazolin-2-yl]amino}-N-[2-fluoro-4-(trifluoromethyl)benzyl]cyclohexanecarboxamide]
CN(C)c1nc(N[C@H]2CC[C@@H](C(=O)NCc3ccc(F)c(C(F)(F)F)c3)CC2)nc2ccccc12 [Example 1176, cis-4-{[4-(dimethylamino)quinazolin-2-yl]amino}-N-[4-fluoro-3-(trifluoromethyl)benzyl]cyclohexanecarboxamide]
CN(C)c1nc(N[C@H]2CC[C@@H](C(=O)NCc3cccc(C(F)(F)F)c3F)CC2)nc2ccccc12 [Example 1177, cis-4-{[4-(dimethylamino)quinazolin-2-yl]amino}-N-[2-fluoro-3-(trifluoromethyl)benzyl]cyclohexanecarboxamide]
CN(C)c1nc(N[C@H]2CC[C@@H](C(=O)NCc3ccc(Cl)c(C(F)(F)F)c3)CC2)nc2ccccc12 [Example 1178, cis-N-[4-chloro-3-(trifluoromethyl)benzyl]-4-{[4-(dimethylamino)quinazolin-2-yl]amino}cyclohexanecarboxamide]
CN(C)c1nc(N[C@H]2CC[C@@H](C(=O)NCc3c(F)cccc3Cl)CC2)nc2ccccc12 [Example 1179, cis-N-(2-chloro-6-fluorobenzyl)-4-{[4-(dimethylamino)quinazolin-2-yl]amino}cyclohexanecarboxamide]
CN(C)c1nc(N[C@H]2CC[C@@H](C(=O)NCc3ccc(F)c(Cl)c3)CC2)nc2ccccc12 [Example 1181, cis-N-(3-chloro-4-fluorobenzyl)-4-{[4-(dimethylamino)quinazolin-2-yl]amino}cyclohexanecarboxamide]
